Measurements taken from patent US20040106663A1, “Inhibitors of fungal invasion” (priority 2002, published 2004).
Where “and” joins values, the source holds several entries; their conditions need not be identical. Equal entries are not always repeated. Where two headings read alike, the source gives them in different places. Marks after values point to notes of the source that are not given here.

How the values were obtained:
[1] = system: logarithmic phase C. albicans (MC295) containing HWP1-lacZ; test: microbe, parasite or virus in culture; type: cell-based; settings: Candida albicans
[2] = system: stationary phase C. albicans (MC295) containing HWP1-lacZ; test: microbe, parasite or virus in culture; type: cell-based, Candida albicans
C. albicans = C. albicans overnight growth inhibition; type: cell-based, Candida albicans; set-up: concentration or dose not given beside the values
C. albicans (MC303) = test: C. albicans morphology assay (hyphae scored 1-5); settings: scale 1-5; for C. albicans Phenotype Rating: invasion morphology phenotype, test compound at 10 μM
Protocol: In this assay, described in greater detail below, the morphology of cells was assessed and scored on a 1-5 scale. A score of 1 was assigned to non-hyphal cells, “yeast-like” cells and budding cells, and a score of 5 was assigned to cells having many, relatively long (wild-type) hyphae.
A frozen stock culture was prepared by streaking C. albicans (MC303: ura3 Δ:: imm434/ura3Δ:: imm434 arg4::hisG/arg4::hisG ade2:: URA3:.pTEF1-lacZ/ADE2 hisl::hisG/HIS1 gal1::ARG4/GAL1) cells on a YPD agar plate and grown at 30° C. for 14-18 h. An isolated colony was added to 5 mL of YPD broth and grown on a roller drum (60 rpm) for 14-18 h at 30° C. Next, 600 μL of culture were aliquotted into 1 mL of 25% glycerol, and the tubes are stored at −80° C.
Frozen MC303 C. albicans cell stock was struck for isolation of a single colony using a sterile loop on a YPD agar plate and grown at 30° C. for 14-18 h. A single colony was inoculated into 5 mL of YPD in a test tube and grown on a roller drum (60 rpm) for 2 days at 30° C. to late stationary phase (OD600˜30). For the assay, this stock was diluted to 2.5×10^5 cells/mL to make a 10× stock. Next, 10 μL of this cell stock was added to 80 μL of Inducing Media and 10 μL of 10× compound stock or DMSO in a Coming, tissue-culture treated, flat-bottom, microtiter plate. The plate was incubated at 37° C. for 24 h. Next, 10 μL of formaldehyde (37%) was added to each well and the cells were fixed for 10 min. The liquid was gently decanted from the plate and each well was examined under a microscope. Each well was photographed and observed cells are scored on a scale of 1-5. […] A 1 indicates cells are non-hyphal with only “yeast-like” cells and budding cells.
Scores of 2, 3, and 4 indicate shorter length or reduced quantity of hyphae when compared with WT (2 being very near non-hyphal and 4 being close to WT).

[3] = system: HepG2 human hepatoma cells; settings: 4 h
Protocol: Mammalian Cell Toxicity Assay
To investigate the toxicity of Compound I for mammalian cells, human hepatoma cell line HepG2 were exposed to Compound I and the (LD50) was determined. Briefly, HepG2 human hepatoma cells (American Type Culture Collection, Bethesda Md.) were plated at 1×10^5 cells/well in tissue culture treated 96 well plates and incubated at 5% CO2, 37° C. for 18 h prior to initiation of the assay. The compound stocks at 100 mM in DMSO were added to DM (defined media, media without serum with added insulin, selenium and transferrin) at an initial concentration of 1000 μM and serially diluted 1 to 3 in DM in a 96 well plate. For 20 μL of a test solution, 3.5 μL sample is added to 346.5 μL media for an initial concentration of 1000 μM. These dilutions are added to the cells at final sample concentrations between 0.5 and 1000 μM (<1% DMSO). Controls included: media only (negative control) and 0.1% Triton-X (positive control). Control drugs (tamoxifen and 2-thiouracil) were also used to verify each assay. The samples were incubated at 37° C. in humidified 5% CO2 atmosphere for 4 h.
The plate was read directly on the Tecan Spectrafluor Plus reader in the fluorescent mode at excitation 530 nm and emission 595 nm. The blank was subtracted from the total fluorescence to give the net fluorescence for that well. This total was compared to the control in the absence of the compound. An LD50 (concentration at 50% of lethal dose) is calculated as the concentration that leads to a response of 50% compared to the control cells. Thus, cytotoxicity is measured as percent of inhibition of cell viability as determined by the Alamar Blue assay.

[4] = read-out: C. albicans LOG IC50, logarithmic phase growth invasion assay (converted)
[5] = Candida albicans, read-out: C. albicans STAT IC50, stationary phase growth invasion assay

Compound | IC50 [1, 4] | IC50 [2, 5] | C. albicans Overnight Growth Inhibition (C. albicans) | C. albicans Phenotype Rating (C. albicans (MC303)) | AFDD Mammalian Cytotoxicity LD50 [3] | IC50 ([1]; read-out: concentration inhibiting invasion of logarithmic phase C. albicans by 50%, logarithmic phase) | IC50 ([2]; Candida albicans, read-out: concentration inhibiting invasion of stationary phase C. albicans by 50%, stationary phase) | mammalian cell LD50 [3] | average morphology score (C. albicans (MC303); 10 μM) | IC50 ([2]; read-out: C. albicans STAT IC50, stationary phase growth invasion assay)
CCCCCc1ccc(S(=O)(=O)Nc2cc(C)on2)cc1 | 0.00928 µM | 1.41 µM | −49.4% | 4 |  |  |  |  |  | 
CCCCCCc1ccc(S(=O)(=O)Nc2cc(C)on2)cc1 | 0.0099 µM | 2.87 µM | 32.5% | 2 and 4 and 5 | 449.1 µM |  |  |  |  | 
Cc1ccc(-c2ccc(S(=O)(=O)Nc3cc(C)on3)cc2)cc1 | 0.041 µM | > 20 µM | 12.3% |  | >1000 µM |  |  |  |  | 
CCCCOc1ccc(S(=O)(=O)Nc2cc(C)on2)cc1 | 0.042 µM | 11.7 µM | −6.4% |  | >1000 µM |  |  |  |  | 
Cc1cc(NS(=O)(=O)c2ccc(-c3ccc(C)s3)cc2)no1 | 0.05 µM | 4.91 µM | 22.4% |  |  |  |  |  |  | 
Cc1cc(NS(=O)(=O)c2ccc(OCC3CC3)cc2)no1 | 0.051 µM | 11.5 µM | −7.3% | 5 |  |  |  |  |  | 
Cc1cc(NS(=O)(=O)c2ccc(-c3ccccc3C)cc2)no1 | 0.056 µM | > 20 µM | 4.8% | 5 |  |  |  |  |  | 
CCCCc1cc(F)c(S(=O)(=O)Nc2cc(C)on2)cc1F | 0.087 µM | > 20 µM | −14.5% | 5 |  |  |  |  |  | 
Cc1cc(NS(=O)(=O)c2ccc(-c3ccccc3)cc2)no1 | 0.0893 µM |  | 19.5% | 2 and 5 | >1000 µM |  |  |  |  | 
Cc1cc(NS(=O)(=O)c2ccc(N3CCCC3)cc2)no1 | 0.091 µM | 3.73 µM | 4.4% | 4 and 5 |  |  |  |  |  | 
Cc1cc(NS(=O)(=O)c2ccc(C3CCCC3)cc2)no1 | 0.11 µM | 19.8 µM | 13.9% | 5 |  |  |  |  |  | 
Cc1cc(NS(=O)(=O)c2ccc(-c3cccc(Cl)c3)cc2)no1 | 0.11 µM | > 20 µM | 7.7% | 5 |  |  |  |  |  | 
CCc1ccc(-c2ccc(S(=O)(=O)Nc3cc(C)on3)cc2)cc1 | 0.115 µM | > 20 µM | −14.4% | 5 |  |  |  |  |  | 
Cc1cc(NS(=O)(=O)c2ccc(-c3ccc(F)c(C)c3)cc2)no1 | 0.116 µM |  | 2.6% |  | 601.4 µM |  |  |  |  | 
Cc1cc(NS(=O)(=O)c2ccc(-c3ccc(F)c(Cl)c3)cc2)no1 | 0.192 µM | > 20 µM | 18.6% | 5 |  |  |  |  |  | 
Cc1cc(NS(=O)(=O)c2ccc(-c3ccc(F)cc3)cc2)no1 | 0.294 µM |  | 12.7% |  | 983.2 µM |  |  |  |  | 
Cc1cc(NS(=O)(=O)c2ccc(-c3cc4ccccc4o3)cc2)no1 | 0.32 µM | 2.61 µM | 23.8% | 2* |  |  |  |  |  | 
Cc1cc(NS(=O)(=O)c2ccc(-c3sccc3C)cc2)no1 | 0.32 µM | > 20 µM | 11.5% | 5 |  |  |  |  |  | 
Cc1cc(NS(=O)(=O)c2ccc(-c3ccccc3F)cc2)no1 | 0.35 µM | > 20 µM | −4.3% | 5 |  |  |  |  |  | 
CCCSCc1ccc(S(=O)(=O)Nc2cc(C)on2)cc1 | 0.656 µM | > 20 µM | −21.3% | 5 |  |  |  |  |  | 
Cc1cc(NS(=O)(=O)c2ccc(-c3ccc4c(c3)OCO4)cc2)no1 | 0.674 µM | > 20 µM |  |  | >1000 µM |  |  |  |  | 
Cc1cc(NS(=O)(=O)c2ccc(-c3ccc(F)c(F)c3)cc2)no1 | 1.1 µM | > 20 µM | 8.8% | 5 |  |  |  |  |  | 

Compound | IC50 [1, 4] | IC50 [2, 5] | C. albicans Overnight Growth Inhibition (C. albicans) | C. albicans Phenotype Rating (C. albicans (MC303)) | AFDD Mammalian Cytotoxicity LD50 [3] | IC50 ([1]; read-out: concentration inhibiting invasion of logarithmic phase C. albicans by 50%, logarithmic phase) | IC50 ([2]; Candida albicans, read-out: concentration inhibiting invasion of stationary phase C. albicans by 50%, stationary phase) | mammalian cell LD50 [3] | average morphology score (C. albicans (MC303); 10 μM) | IC50 ([2]; read-out: C. albicans STAT IC50, stationary phase growth invasion assay)
CCCCc1ccc(S(=O)(=O)Nc2ccon2)cc1 | 1.42 µM | 17.4 µM | 18.3% | 5 |  |  |  |  |  | 
Cc1cc(NS(=O)(=O)c2ccc(-c3ccc(F)cc3)cc2C)no1 | 1.47 µM | > 20 µM | 1.3% | 4 | 648.5 µM |  |  |  |  | 
Cc1cc(NS(=O)(=O)c2ccc(-c3cc(Cl)cc(Cl)c3)cc2)no1 | 1.48 µM | > 20 µM | −3.1% | 5 |  |  |  |  |  | 
CCc1ccc(S(=O)(=O)Nc2cc(C)on2)cc1 | 1.61 µM | > 20 µM | −78.9% | 4 | >1000 µM |  |  |  |  | 
Cc1cc(NS(=O)(=O)c2ccc(-c3cc4ccccc4s3)cc2)no1 | 1.76 µM | > 20 µM | −1.8% | 4 and 5 |  |  |  |  |  | 
CCCCC(F)(F)c1ccc(S(=O)(=O)Nc2cc(C)on2)cc1 | 2.02 µM | > 20 µM | −1.6% | 5 |  |  |  |  |  | 
Cc1cc(NS(=O)(=O)c2ccc(-n3cccn3)cc2)no1 | 2.1 µM | > 20 µM | −13.3% | 5 |  |  |  |  |  | 
Cc1cc(NS(=O)(=O)c2ccc3ccccc3c2)no1 | 2.26 µM | > 20 µM | −14.7% | 5 |  |  |  |  |  | 
CCCN(CCC)c1ccc(S(=O)(=O)Nc2cc(C)on2)cc1 | 2.79 µM | > 20 µM | −2.8% | 5 |  |  |  |  |  | 
Cc1cc(NS(=O)(=O)c2ccc(-c3nccs3)cc2)no1 | 2.8 µM | > 20 µM | 32.7% | 3 and 5 |  |  |  |  |  | 
Cc1cc(NS(=O)(=O)c2ccc(-c3cccc(Cl)c3Cl)cc2)no1 | 3.01 µM | > 20 µM | −0.3% | 5 |  |  |  |  |  | 
Cc1cc(NS(=O)(=O)c2ccc(-c3ccc(F)cc3F)s2)no1 | 3.36 µM | > 20 µM | −0.6% | 5 |  |  |  |  |  | 
Cc1cc(NS(=O)(=O)c2ccc(OC(C)C)cc2)no1 | 3.6 µM | > 20 µM | 0.8% | 5 |  |  |  |  |  | 
Cc1cc(NC(=O)Nc2ccc(S(=O)(=O)Nc3cc(C)on3)cc2)no1 | 5.16 µM | > 20 µM | −25.4% | 5 |  |  |  |  |  | 
Cc1cc(NS(=O)(=O)c2ccc(Oc3ccccc3)cc2)no1 | 5.21 µM | > 20 µM | 4.4% | 5 |  |  |  |  |  | 
Cc1cc(NS(=O)(=O)c2ccc(CCCCCCCCCCO)cc2)no1 | 17.3 µM | > 20 µM | 71.0% | 5 |  |  |  |  |  | 
Cc1cc(NS(=O)(=O)c2ccc(CC3C4CCC(C4)C3(C)C)cc2)no1 (centres unmarked) | 18 µM | > 20 µM | −0.6% | 5 |  |  |  |  |  | 
CCCCc1ccc(S(=O)(=O)Nc2cc(C)on2)cc1 [Compound I] |  |  |  |  |  | 0.0049 µg/mL | 0.85 µg/mL | greater than 1000 μM | 1 | 
CCCCc1ccc(S(=O)(=O)Nc2cc(C)on2)cc1 [drawing 232] | 0.00603 µM | 0.897 µM | 19.4% |  | >1000 µM |  |  |  |  | 
Cc1cc(NS(=O)(=O)c2ccc(-c3ccc(F)cc3F)cc2)no1 [drawing 258] |  |  | −3.6% |  | >1000 µM |  |  |  |  | 
CCCNc1ccc(S(=O)(=O)Nc2cc(C)on2)cc1 [drawing 266] | 0.36 µM | 10.4 µM | −17.9% |  | >1000 µM |  |  |  |  | > 20 µM
